Usually melting point stands for the temperature, or range, at which the solid turns liquid.

In turn, `O=C1N(Cc2ccc(Cl)s2)c2ccccc2C12COc1cc3c(cc12)OCO3` (stereo not drawn) registered a melting point of 145 to 146 °C.

Take `Cc1cccc2c1Oc1ccccc1N2`: the melting point worked out at 91 °C.

`O=C1CCC(N2C(=O)c3cccc(OCc4ccc(CN5CCOCC5)cc4)c3C2=O)C(=O)N1` (stereo not drawn) returned a melting point of 205 to 207 °C.

`CCCC[C@H]1CC[C@H](c2ccc(OC(=O)[C@H]3CC[C@H](CCC)C3)cc2)CC1` (relative stereo) yielded a melting point of 90 °C.

`COC(=O)C1(C(N)=O)CC1` showed a melting point of 157 °C.

In turn, `O=C(Cc1ccc(NC(=O)c2cn3c4c(cccc24)CCC3)cc1)NO` gave a melting point of 199 to 202 °C.

In the case of `COC(=O)c1sc2c(c1N)c1ccccc1c(=O)n2-c1ccccc1`, the melting point is over 270 °C.

`CC1(C)CC(=O)C2(CCC(=O)O)CC1C2` came in with a melting point of 90 to 93 °C.

On to `COC(=O)c1ccc(-c2nc(COc3ccc(CO)cc3OC)c(C)o2)cc1`, for which the melting point was in the range of 170 to 171 °C.

Consider `Nc1ccc(N2CCN(c3ccncc3)CC2)cc1`, for which the melting point fell in the range of 204 to 208 °C.

On to `COc1c(O)cc(F)cc1-c1c(Cl)cccc1Cl`, for which the melting point was 65 to 67 °C.

In the case of `CC1=Nc2ccccc2S(=O)(=O)N1`, the melting point lay in the range of 260 to 261 °C.

Take `CCCCc1oc2ccc([N+](=O)[O-])cc2c1C(=O)c1ccc(OCCBr)cc1`: the melting point stood at 81 °C.

`N#Cc1c(C(F)(F)F)ccc(Cl)c1Cl` had a melting point of 53 to 54 °C.

Consider `CONC(=O)C=C1SC(Nc2c(Cl)cccc2Cl)=NC1=O`, for which the melting point was in the range of 205 to 206 °C.

`CCCCC(F)c1nc[nH]c(=O)c1Cl` (stereo not drawn) displayed a melting point of 157 to 160 °C.

In the case of `CCc1cc(Br)cc2c1C(=O)C(=O)N2`, the melting point was in the range of 229 to 230 °C.

Compound `OCCC1CCc2cc3ccccc3n2C1` (stereo not drawn) gave a melting point of 70 to 72 °C.

The compound `CCN1CCN(Cc2ccc(-c3cc4c(NCc5cccc(Cl)c5)ncnc4[nH]3)cc2)CC1` displayed a melting point of 241 to 243 °C.

`COC(=O)c1cccc(C)c1/C=C/Cc1c(OC)c(C)c2c(c1OC(C)=O)C(=O)OC2` came in with a melting point of 104 to 111 °C.

`CC(C)(C)OC(=O)N1CCN(CCSc2nc3ccccc3[nH]2)CC1` gave a melting point of 175 to 176 °C.

In turn, `COc1ccc(-c2cc(Cl)cc3c2NC(CN)CO3)c(Cl)c1` (stereo not drawn) yielded a melting point of 105 °C.

As for `C#CCOCc1nnc(Nc2ccc3c(c2)ncn3-c2ccccc2)c2ccccc12`, the melting point was in the range of 89 to 91 °C.

For `FC(F)(F)c1ccc(CN2CC3(COc4ccc(-c5cccnc5)cc43)c3ccccc32)o1` (stereo not drawn), the melting point lay in the range of 98 to 100 °C.

`Cc1cc(O)c2c(c1)C(C)(C)CC2(C)C` came in with a melting point of 66 °C.

On to `COC(=O)c1nc(I)cc(N)c1Cl`, for which the melting point lay in the range of 152 to 153 °C.

Turning to `Cc1nc(N)c2nc(C)n(CCCCCSc3ccccc3)c2c1C`, the melting point was 181 to 183 °C.

As to `CCOC(=O)c1cn(C2CC2)c2nc(Cl)c(F)c(C)c2c1=O`, the melting point fell in the range of 170 to 171 °C.

The compound `Nc1nc(N)c(NC=O)c(Cl)n1` gave a melting point of over 300 °C.

For the compound `Cn1nc(Br)c([N+](=O)[O-])c1NCCO`, the melting point amounted to 150 °C.

The compound `Oc1nc(Cl)n(-c2ccccc2)n1` displayed a melting point of 147 to 149 °C.

On to `Nc1nc(F)cc(OCc2ccccc2)n1`, for which the melting point was in the range of 96 to 98 °C.

In turn, `COC(=O)c1cc2ccccc2n1-c1ccccn1` displayed a melting point of 158 to 159 °C.

In the case of `COCOc1ccc(OC(C)C(=O)Nc2ccc(OC(F)(F)F)cc2)cc1` (stereo not drawn), the melting point is 115 to 116 °C.

Take `Nc1cc(N2CCNCC2)ccc1[N+](=O)[O-]`: the melting point lay within 159 to 160 °C.

As for `CCOC(=O)CCCOc1ccc2c(c1)C(=O)CCC2`, the melting point was 62 to 63 °C.

For `COC(=O)c1nn(C2CCCCO2)cc1NC(=O)c1cc(Cl)ccn1` (stereo not drawn), the melting point was in the range of 201 to 203 °C.

In the case of `CCCCCCCCCCCCc1nnn[nH]1`, the melting point lay within 68 to 70 °C.

`CCOC(=O)C1=C(CS(=O)(=O)c2ccccc2)Nc2ccnc(OC(C)C)c2C1c1ccccc1C(F)(F)F` (stereo not drawn) showed a melting point of 177 to 182 °C.

Regarding `CC(=O)Nc1cccc(C#CCCn2nc3ccccc3n2)n1`, the melting point was in the range of 93 to 94 °C.

Turning to `N=C(Nc1ccc(Cl)c(Cl)c1)Nc1ncccc1OCc1ccccc1`, the melting point lay within 161 to 162 °C.

`CCCS(=O)c1ncc(C(F)(F)F)cc1Cl` (stereo not drawn) had a melting point of 51 to 53 °C.

`COCCn1cc(-c2ccccc2)n(C(=O)c2ccccc2)c1=O` displayed a melting point of 112 to 117 °C.

In turn, `CN1CCN(c2cc(Cl)cc3c2c(=O)n(Cc2cccc([N+](=O)[O-])c2)c(=O)n3Cc2ccccc2)CC1` gave a melting point of 200 to 205 °C.

Compound `CN(C)CCCNC(=O)c1ccccc1-c1nnc(CSCCOc2ccccc2)o1` registered a melting point of 60 to 65 °C.

In the case of `CN(CCCCCCNC(=O)NCCCOc1cccc(CN2CCCCC2)c1)CCN(Cc1ccc(F)cc1)c1ccccn1`, the melting point was in the range of 65 to 69 °C.

In turn, `CC(=Nc1ccc(NC(=O)CN)cc1)N(C)C` had a melting point of 142 to 145 °C.

Regarding `COc1ccc(-c2nc(CNC(=O)CC(=O)O)sc2-c2ccc(OC)cc2)cc1`, the melting point lay in the range of 126 to 130 °C.

With `Cc1nn(C(=O)NCC2CC2(Cl)Cl)c(=O)n1N` (stereo not drawn), the melting point was 149 °C.

As for `CC(C)C[C@H](NC(=O)N1CCCCCC1)C(=O)OCc1ccccc1`, the melting point was 79 to 82 °C.

As to `O=C(Nc1ccccc1)Nc1cnc(-c2ccccc2)nc1-c1ccccc1Cl`, the melting point was 195 to 198 °C.

In the case of `O=c1c2cc(-c3nnn[nH]3)ccc2oc2ncccc12`, the melting point was over 300 °C.

The compound `CCCC(=O)c1cnc2c(OC)cccc2c1Nc1ccc(CO)cc1` showed a melting point of 187 to 189 °C.

As for `CC(=O)Nc1ccc(N2CCN(c3ccncc3)CC2)cc1`, the melting point lay in the range of 244 to 247 °C.

For the compound `COCCc1nc2c(N)nc3cc(-c4cncc(CO)c4)ccc3c2n1CC(C)(C)O`, the melting point was 210 to 211 °C.

`CC1(C)C(=O)Nc2ccc(C3=NNC(=O)C4CCC34)cc21` (stereo not drawn) came in with a melting point of 315 to 317 °C.

Regarding `C#CCCCOc1c(C)cc(-c2noc(C)n2)cc1C`, the melting point lay in the range of 41.5 to 43 °C.

Compound `O=C1NCCN1C1CCN(CCC2COc3cc(Cl)c(Cl)cc3O2)CC1` (stereo not drawn) had a melting point of 85 to 90 °C.

`O=CC=Cc1cn(Cc2cccc([N+](=O)[O-])c2)nn1`: the melting point was in the range of 136 to 140 °C.

With `COC(=O)C(=O)c1ccc(OCCOc2ccc([N+](=O)[O-])cc2)cc1`, the melting point fell in the range of 122 to 123 °C.

`Cn1c(N)c(C#N)c(Cl)c1C=O` yielded a melting point of 282 to 285 °C.

In turn, `COc1ccc(CN(C)CC(=O)Nc2ccc([N+](=O)[O-])cc2)cc1OC` showed a melting point of 120 °C.

In turn, `CCC1(CCCN2CCN(c3ccccn3)CC2)C(=O)Nc2ccccc21` (stereo not drawn) showed a melting point of 122 to 124 °C.

`CN1c2ccccc2C(c2ccccc2Br)=Nc2cccnc21` showed a melting point of 139 to 140 °C.

In the case of `COc1ccc(F)c2c1C(=O)CC2`, the melting point lay in the range of 118 to 120 °C.

Take `Cc1oc(-c2ccccc2)nc1CCOc1ccc(COc2cc3ccccc3cc2C(=O)O)cc1`: the melting point fell in the range of 135 to 137 °C.

`O=C(NC[C@H]1CN(c2ccc(N3CCS(=O)(=O)CC3)c(F)c2)C(=O)O1)C(F)F` came in with a melting point of 177 to 178 °C.

`O=C(NCc1ccc(Cl)cc1)c1cnc2c(Cl)c(Cl)ccc2c1O` yielded a melting point of 295 to 297 °C.

Compound `COc1c(C)c(C)c(OC)c(CC/C(C)=C/CO)c1C` gave a melting point of 46 °C.

As for `Cc1ccc(C2C(=O)Oc3c2cc(C(C)(C)C)cc3C(C)(C)C)cc1` (stereo not drawn), the melting point was 130 to 133 °C.

For the compound `CC(C)(C)c1ccccc1N1CCN(C(=O)C2CCC(=O)N2Cc2ccccc2)CC1` (stereo not drawn), the melting point was 164 °C.

Compound `CC(=O)c1ccc2ccc(C(=O)O)cc2c1` registered a melting point of 224 to 228 °C.

`COc1ccc(S(=O)(=O)N2c3cc(F)ccc3-c3ccc(F)cc3C2C)cc1` (stereo not drawn) showed a melting point of 141 to 143 °C.

On to `CC(C)(C)OC(=O)N(Cc1csc2ccccc12)S(N)(=O)=O`, for which the melting point stood at 103 °C.

`O=C(CNc1ccc2[nH]c(=O)[nH]c2c1)N1CCC(Cc2ccc(F)cc2)CC1` had a melting point of 85 to 87 °C.

Compound `O=C(C#Cc1ccc(C(=O)O)cc1)Nc1ccccc1` gave a melting point of 271 to 272 °C.

The compound `O=S(=O)(Cl)c1ccc(CCc2ccccc2)cc1` displayed a melting point of 90 to 95 °C.

Consider `CC(=O)C1=CCC2C3CCC4CC(O)C(Cl)CC4(C)C3CCC12C` (stereo not drawn), for which the melting point is 246 to 252 °C.

The compound `COc1ccc(-c2nnn(-c3ccc(C(F)(F)F)cc3Cl)c2CO)cc1` yielded a melting point of 131 to 132 °C.

`NC1COC2=CC3=C(OCCC3)C(=O)C21` (stereo not drawn) returned a melting point of over 260 °C.

In the case of `COc1ccc2c(c1)CCNC(=O)C2`, the melting point fell in the range of 152 to 154 °C.

Regarding `CCCc1c(OCCOc2ccc(C(=O)O)cc2)ccc(C(C)=O)c1O`, the melting point lay in the range of 175 to 176 °C.

In turn, `Cn1c2cc(Cl)ccc2c(=O)c2cccn21` yielded a melting point of 172 to 173 °C.

With `CCOc1cc2ncc(C#N)c(N(C)c3ccccc3)c2cc1OCC`, the melting point fell in the range of 153 to 155 °C.

The compound `ClCc1ccc(OCc2ccc3ccccc3n2)nc1` registered a melting point of 118 to 119 °C.

The compound `CCCOC(=O)CCC(=O)c1ccc(-c2ccccc2F)cc1` had a melting point of 53 to 54 °C.

In turn, `CS(=O)(=O)c1ccc(C(CC2CCCC2)C(=O)Nc2ccccn2)cc1Br` (stereo not drawn) came in with a melting point of 99 to 101 °C.

The compound `CC(SC1COC(c2ccc(C(=O)Nc3ccc(Br)cc3)cc2)OC1)C(O)(Cn1cncn1)c1ccc(F)cc1F` (stereo not drawn) came in with a melting point of 221 °C.

Regarding `Cc1nn(-c2cc(Oc3ccc([N+](=O)[O-])cc3Cl)c(Cl)cc2Cl)c(=O)n1C(F)F`, the melting point lay within 135 to 136 °C.

On to `COc1cc(OC)c2c(=O)[nH]c(-c3ccc(N4CCC(=O)CC4)cc3)nc2n1`, for which the melting point is over 350 °C.

Compound `CC(=O)OC1C(Oc2cccc(O)c2C(=O)CCc2ccc3occc3c2)OC(CO)C(O)C1O` (stereo not drawn) returned a melting point of 152 to 156 °C.

`O=C1CNC(=O)N1C1CCNCC1` yielded a melting point of 214 to 217 °C.

On to `CCOC(=O)c1ccc2c(c1)ncn2-c1cccc(COCc2ccccn2)c1`, for which the melting point is 99.8 to 101 °C.

The values above are taken from a melting point compilation (Tetko et al.; mined from patent text by program, amines drawn as free bases though some values may be those of a salt).
